Assay results published in paper PMC3961306, “Comparison of the Cancer Gene Targeting and Biochemical Selectivities of All Targeted Kinase Inhibitors Approved for Clinical Use” (PLoS ONE, 2014).
Like-named read-outs stand apart in the source and are kept apart here.

Experiments:
[1] = tested on: forty-four human cancer cell lines; test: Cell proliferation assay (ATPlite, 72 hours) in the 44 cell line Oncolines panel; assay type: cell-based; details: Homo sapiens
[2] = target: panel of more than 300 wild-type and mutant kinases (313 kinase panel) (Homo sapiens, UniProt P09619); test: Kinase profiling in a biochemical assay panel (mobility shift assays and ELISA), %-inhibition at 1 μM; selectivity entropy; details: kinase PDGFRβ; 1 μM
[3] = target: panel of more than 300 wild-type and mutant kinases (313 kinase panel) (Homo sapiens, UniProt P19525); test: as above; details: kinase PKR; 1 μM
[4] = target: panel of more than 300 wild-type and mutant kinases (313 kinase panel) (Homo sapiens, UniProt O95819); test: as above
[5] = target: panel of more than 300 wild-type and mutant kinases (313 kinase panel) (Homo sapiens, UniProt P11362, V561M); test: as above; details: kinase FGFR1(V561M); compound at 1 μM
[6] = target: panel of more than 300 wild-type and mutant kinases (313 kinase panel) (Homo sapiens, UniProt P00519, E255K); test: as above; details: kinase ABL(E255K); 1 μM compound
[7] = target: panel of more than 300 wild-type and mutant kinases (313 kinase panel) (Homo sapiens, UniProt Q9UM73, R1275Q); test: as above; details: kinase ALK(R1275Q); 1 μM compound
[8] = target: T1, panel of more than 300 wild-type and mutant kinases (313 kinase panel) (Homo sapiens, UniProt Q16832); test: as above; details: kinase DDR2; compound at 1 μM
T1 sequence (Q16832 22-855): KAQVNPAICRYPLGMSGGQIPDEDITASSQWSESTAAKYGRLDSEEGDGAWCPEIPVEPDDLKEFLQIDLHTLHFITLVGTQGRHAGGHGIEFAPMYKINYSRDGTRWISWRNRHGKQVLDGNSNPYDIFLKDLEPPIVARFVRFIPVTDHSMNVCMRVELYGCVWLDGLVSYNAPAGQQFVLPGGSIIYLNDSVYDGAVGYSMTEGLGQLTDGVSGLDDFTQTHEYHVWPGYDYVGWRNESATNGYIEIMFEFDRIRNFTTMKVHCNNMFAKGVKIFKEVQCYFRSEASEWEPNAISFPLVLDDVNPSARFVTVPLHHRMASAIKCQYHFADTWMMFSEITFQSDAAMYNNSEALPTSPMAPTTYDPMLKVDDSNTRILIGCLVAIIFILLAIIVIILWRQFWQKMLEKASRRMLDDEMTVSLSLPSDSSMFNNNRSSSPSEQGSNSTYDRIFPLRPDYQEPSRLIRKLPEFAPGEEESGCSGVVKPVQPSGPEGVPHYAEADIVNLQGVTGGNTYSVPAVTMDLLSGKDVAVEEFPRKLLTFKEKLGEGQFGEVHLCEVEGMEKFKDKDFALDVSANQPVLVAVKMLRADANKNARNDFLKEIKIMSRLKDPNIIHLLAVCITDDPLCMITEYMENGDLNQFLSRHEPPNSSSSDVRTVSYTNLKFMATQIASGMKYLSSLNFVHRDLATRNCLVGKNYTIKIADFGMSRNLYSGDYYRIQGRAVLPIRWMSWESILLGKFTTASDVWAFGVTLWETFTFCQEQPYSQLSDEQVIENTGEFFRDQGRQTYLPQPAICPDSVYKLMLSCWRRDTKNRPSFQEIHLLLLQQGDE

[9] = target: panel of more than 300 wild-type and mutant kinases (313 kinase panel) (Homo sapiens, UniProt Q00535); test: as above; details: kinase CDK5/p25; 1 μM compound
[10] = 4-4 cell, read-out: cell panel IC50, J82
[11] = 4-4 cell, read-out: cell panel IC50, PA-1
[12] = 4-4 cell, read-out: cell panel IC50, SJCRH30
[13] = 4-4 cell, read-out: cell panel IC50, SR
[14] = 769-P, read-out: cell panel IC50, 769-P
[15] = 786-0, read-out: cell panel IC50, 786-0
[16] = A 172, read-out: cell panel IC50, A-172
[17] = A204, read-out: cell panel IC50, A-204
[18] = A498, read-out: cell panel IC50, A-498
[19] = A549, read-out: cell panel IC50, A-549
[20] = A-375, read-out: cell panel IC50, A375
[21] = A-427, read-out: cell panel IC50, A-427
[22] = ACHN, read-out: cell panel IC50, ACHN
[23] = AN3-CA, read-out: cell panel IC50, AN3 CA
[24] = AU565, read-out: cell panel IC50, AU-565
[25] = BT-20, read-out: cell panel IC50, BT-20
[26] = BT-549, read-out: cell panel IC50, BT-549
[27] = BXPC-3, read-out: cell panel IC50, BxPC-3
[28] = C-33-A, read-out: cell panel IC50, C-33 A
[29] = CAL-27, read-out: cell panel IC50, CAL 27
[30] = CCRF-CEM, read-out: cell panel IC50, CCRF-CEM
[31] = DLD-1, read-out: cell panel IC50, DLD-1
[32] = FaDu, read-out: cell panel IC50, FaDu
[33] = HCT-15, read-out: cell panel IC50, HCT-15
[34] = HCT-116, read-out: cell panel IC50, HCT-116
[35] = Hs-578T, read-out: cell panel IC50, Hs 578T
[36] = Jurkat E6.1, read-out: cell panel IC50, Jurkat E6.1
[37] = K562, read-out: cell panel IC50, K-562
[38] = LS174T, read-out: cell panel IC50, LS 174T
[39] = LoVo, read-out: cell panel IC50, LoVo
[40] = MG-63, read-out: cell panel IC50, MG-63
[41] = MOLT-4, read-out: cell panel IC50, MOLT-4
[42] = MeWo, read-out: cell panel IC50, MeWo
[43] = NCI-H82, read-out: cell panel IC50, NCI-H82
[44] = NCI-H460, read-out: cell panel IC50, NCI-H460
[45] = OVCAR-3, read-out: cell panel IC50, OVCAR-3
[46] = RPMI-7951, read-out: cell panel IC50, RPMI-7951
[47] = SHP77, read-out: cell panel IC50, SHP-77
[48] = SK-N-AS, read-out: cell panel IC50, SK-N-AS
[49] = SW48, read-out: cell panel IC50, SW48
[50] = SW480, read-out: cell panel IC50, SW480
[51] = SW-620, read-out: cell panel IC50, SW620
[52] = U2OS, read-out: cell panel IC50, U-2 OS
[53] = U-87 MG, 72 h, read-out: IC50 in cell proliferation assay (table S5 cellpanel data)

SMILES: O=S(=O)(c1cccc2cnccc12)N1CCCNCC1 [fasudil]
- IC50 [1, 10]: > 31.6 µM
- IC50 [1, 11]: > 31.6 µM
- IC50 [1, 12]: > 31.6 µM
- IC50 [1, 13]: 14.6 µM
- IC50 [1, 14]: > 31.6 µM
- IC50 [1, 15]: > 31.6 µM
- IC50 [1, 16]: > 31.6 µM
- IC50 [1, 17]: > 31.6 µM
- IC50 [1, 18]: > 31.6 µM
- IC50 [1, 19]: > 31.6 µM
- IC50 [1, 20]: 19.7 µM
- IC50 [1, 21]: > 31.6 µM
- IC50 [1, 22]: > 31.6 µM
- IC50 [1, 23]: 29.8 µM
- IC50 [1, 24]: > 31.6 µM
- IC50 [1, 25]: > 31.6 µM
- IC50 [1, 26]: > 31.6 µM
- IC50 [1, 27]: > 31.6 µM
- IC50 [1, 28]: > 31.6 µM
- IC50 [1, 29]: > 31.6 µM
- IC50 [1, 30]: > 31.6 µM
- IC50 [1, 31]: > 31.6 µM
- IC50 [1, 32]: > 31.6 µM
- IC50 [1, 33]: > 31.6 µM
- IC50 [1, 34]: > 31.6 µM
- IC50 [1, 35]: > 31.6 µM
- IC50 [1, 36]: > 31.6 µM
- IC50 [1, 37]: > 31.6 µM
- IC50 [1, 38]: > 31.6 µM
- IC50 [1, 39]: > 31.6 µM
- IC50 [1, 40]: > 31.6 µM
- IC50 [1, 41]: > 31.6 µM
- IC50 [1, 42]: > 31.6 µM
- IC50 [1, 43]: > 31.6 µM
- IC50 [1, 44]: > 31.6 µM
- IC50 [1, 45]: > 31.6 µM
- IC50 [1, 46]: > 31.6 µM
- IC50 [1, 47]: > 31.6 µM
- IC50 [1, 48]: > 31.6 µM
- IC50 [1, 49]: > 31.6 µM
- IC50 [1, 50]: > 31.6 µM
- IC50 [1, 51]: > 31.6 µM
- IC50 [1, 52]: > 31.6 µM
- IC50 [1, 53]: > 31.6 µM
- %-inhibition of PDGFRβ [2]: 12%
- %-inhibition of PKR [3]: -4.39%
- %-inhibition of HGK ([4]; kinase HGK, compound at 1 μM): -1.82%
- %-inhibition of FGFR1(V561M) [5]: 2.35%
- %-inhibition, ABL(E255K) [6]: -3%
- %-inhibition, ALK(R1275Q) [7]: -1.83%
- %-inhibition of DDR2 [8]: 0.102%

SMILES: CS(=O)(=O)CCNCc1ccc(-c2ccc3ncnc(Nc4ccc(OCc5cccc(F)c5)c(Cl)c4)c3c2)o1 [lapatinib]
- IC50 [1, 10]: 15.5 µM
- IC50 [1, 11]: 12.4 µM
- IC50 [1, 12]: 12.3 µM
- IC50 [1, 13]: 7.6 µM
- IC50 [1, 14]: 8.8 µM
- IC50 [1, 15]: 11.5 µM
- IC50 [1, 16]: 13.8 µM
- IC50 [1, 17]: 10.6 µM
- IC50 [1, 18]: 9.97 µM
- IC50 [1, 19]: 15.6 µM
- IC50 [1, 20]: 14.9 µM
- IC50 [1, 21]: 12.7 µM
- IC50 [1, 22]: 5.79 µM
- IC50 [1, 23]: 12 µM
- IC50 [1, 24]: 0.137 µM
- IC50 [1, 25]: 17.3 µM
- IC50 [1, 26]: 16.7 µM
- IC50 [1, 27]: 6.59 µM
- IC50 [1, 28]: 0.446 µM
- IC50 [1, 29]: 2.56 µM
- IC50 [1, 30]: 10.1 µM
- IC50 [1, 31]: 12.9 µM
- IC50 [1, 32]: 0.902 µM
- IC50 [1, 33]: 8.92 µM
- IC50 [1, 34]: 13.8 µM
- IC50 [1, 35]: 14.6 µM
- IC50 [1, 36]: 7.05 µM
- IC50 [1, 37]: 14.2 µM
- IC50 [1, 38]: 7.07 µM
- IC50 [1, 39]: 9.08 µM
- IC50 [1, 40]: 12.3 µM
- IC50 [1, 41]: 8.79 µM
- IC50 [1, 42]: 14.5 µM
- IC50 [1, 43]: 11.7 µM
- IC50 [1, 44]: 16.2 µM
- IC50 [1, 45]: > 31.6 µM
- IC50 [1, 46]: 13.7 µM
- IC50 [1, 47]: 14.1 µM
- IC50 [1, 48]: 12.7 µM
- IC50 [1, 49]: 22.8 µM
- IC50 [1, 50]: 13.2 µM
- IC50 [1, 51]: 21.1 µM
- IC50 [1, 52]: 12.9 µM
- IC50 [1, 53]: 10.5 µM
- %-inhibition of PDGFRβ [2]: 2.84%
- %-inhibition of PKR [3]: -0.192%
- %-inhibition of HGK ([4]; 1 µM): 1%
- %-inhibition, CDK5/p25 [9]: 0.201%
- %-inhibition, ABL(E255K) [6]: -4.67%
- %-inhibition of DDR2 [8]: 83%
